Results reported in patent US20230181905A1, “Systems, Devices, and Methods for Enhancing the Neuroprotective Effects of Non-Invasive Gamma Stimulation with Pharmacological Agents” (Massachusetts Institute of Technology, priority 2021, published 2023).

Assays:
Type in all cases: in vivo, mouse
[1] = test system: vGLUT1; assay: vGLUT1 western blot and puncta, overall and within WFA; conditions: 5×FAD mice
From the text: It was reasoned that the increased WFA coverage and enhanced phase locking of neurons after these treatments are related. […] WFA has been predominantly observed around interneurons, specifically PV interneurons. vGLUT1 (Synaptic Systems, #1135 302), an excitatory synaptic marker, was labeled with WFA. It was observed that the overall vGLUT1 signal was higher after Plx3397+GENUS treatment in mice (ANOVA, F (3,22)=3,686, P=0.0273) (FIGS. 18A, 18B). WFA was 3D rendered and surface created and examined (vGLUT1) within WFA, and observed increased vGLUT1 within WFA (Nested ANOVA, F (3,29)=3.377, P=0.0493) (FIGS. 18A, 18C).
vGAT and vGLUT1 puncta: LSM 710, with a 40× objective, was used to acquire the images. The entire […] thickness of the slices was acquired in Z stacks—80 per image (step of 0.5 μm). The spot-count inbuilt function in Imarisx64 9.3 was used to count cells automatically.
These observations point to synaptic connectivity, PNN extracellular architecture, and myelination as biological processes that GENUS impacts to improve the outcomes in Plx3397 administered 5×FAD mice. To further validate this, additional biochemical analyses were performed. […]
The brain was perfused with PBS and fixed with 4% PFA. […] Signal intensities were quantified using ImageJ 1.46q and normalized to values of loading control.

[2] = test system: myelin basic protein (MBP); assay: MBP levels and myelination of PV axons; conditions: 5×FAD mice
From the text: It was next sought to understand whether Plx3397 administration-dependent electrophysiological alterations were attributed to changes in amyloid plaque levels. […] In the cuprizone model of demyelination, Plx33977 administration preserved myelin. It was thus considered whether electrophysiological alterations are associated with myelin levels in Plx3397 treated 5×FAD mice.
These observations point to synaptic connectivity, PNN extracellular architecture, and myelination as biological processes that GENUS impacts to improve the outcomes in Plx3397 administered 5×FAD mice. To further validate this, additional biochemical analyses were performed. […] Next, it was observed that Plx3397 (130.4±7.178), GENUS (116.2±5.225) and Plx3397+GENUS (119.0±6.325) all increased the WFA signals with the highest levels in Plx3397 alone group compared to controls (100±4.655) (FIGS. 25D, 25F). […] Synaptic input arriving within the PNN of parvalbumin (PV) interneurons and the PNN architecture are shown to modulate the activity of PV interneurons robustly. […] Next, although the total MBP levels was not affected (100±19.58, 132.4±30.10, 140.2±25.31, & 133.4±22.13 in control, Plx3397, GENUS, Plx3397+Genus groups, respectively), GENUS increased myelin ensheathment of axons of PV interneurons in Plx3397 administered 5×AFAD mice (20.75±1.45, 25.44±2.83, 37.91±4.56, & 31.3±3.21) (FIGS. 25D, 25H, 25I and FIG. 30C). Collectively, these findings show improved synaptic connectivity and axonal myelination of PV interneurons after repeated GENUS in Plx3397 administered 5×FAD mice.

[3] = test system: aggrecan; assay: Aggrecan immunohistochemistry around PV interneurons; conditions: 5×FAD mice, visual cortex; Plx3397 50 days
From the text: These observations led to examination of the effect of Plx3397 administration on neuronal integrity. […] Indeed, it was observed that Plx3397 administration increased WFA+(Wisteria floribunda agglutinin, a PNN marker) PNN signals (au, 289400000±9384029 versus 213000000±16633300 in controls) (FIG. 22A, 22F), while aggrecan (a component in PNN) signals were […] specifically around PV interneurons in Plx3397 administered 5×FAD mice (12.34±0.4791 versus 7.837±0.3549 in controls) (FIG. 22A, 22G).

[4] = test system: IBA1+ microglia; assay: Iba1+ microglia counts in APOE4-KI 5×FAD hippocampus
Protocol: Hippocampal mouse brain sections were stained for Iba1, a microglia/macrophage specific marker, and cell numbers were counted. […] Next, 7-8 month old male APOE4-KI 5×FAD animals were treated with 3 weeks of PLX3397 diet (or control), followed by 21 days of A+V GENUS, during which animals remained on their diets (FIG. 37).

## FC(F)(F)c1ccc(CNc2ccc(Cc3c[nH]c4ncc(Cl)cc34)cn2)cn1 [Plx3397, Pexidartinib]
[1]; visual cortex, control 100±7.30
  vGLUT1 level (western blot): 130.1±10.05
[1]; controls 313.4±13.20
  vGLUT1 synaptic puncta in the WFA of PV interneurons: 332.7±13.14 % of no treatment control
[2]; hippocampus, chronic Plx3397 vs control
  MBP levels: did not affect
[2]; visual cortex, Plx3397 50 days, not significantly affected
  overall MBP signals: 953800000±1277515477 au
[2]; western blot, control 100±19.58, not affected
  total MBP levels: 132.4±30.10
[2]; control 20.75±1.45
  myelin ensheathment of axons of PV interneurons: 25.44±2.83
[3]
  aggrecan signals around PV interneurons: 12.34±0.4791
[4]; APOE4-KI 5×FAD mice on PLX3397 diet
  microglia numbers (Iba1+ cell counts), GENUS vs no GENUS after depletion: not further modified
[4]; male APOE4-KI 5×FAD mice, hippocampus, PLX3397 diet vs standard diet
  microglia numbers: significant reduction
